# Data taken from patent US20230212549A1, “COMPOUNDS COMPRISING A […] LIGAND AND USE THEREOF” (priority 2021, published 2023).
# Numbered stars: 1 amine (or outer) side, 2 acyl side, 3 side chain; on linkers, the order of the positions; unused ones are H or OH. Bridge positions count the residues as written; N and C are the ends. Square brackets hold non-standard residues; d marks the D form. Peptide text beside a SMILES is read from it. * marks the point of attachment. X1 = NCCNCC(CNCCN)C(=O)N1CCN(CC(=O)NCCCOCCOCCOCCCN*)CC1; mXylylene = c1cc(C[*:1])cc(C[*:2])c1; Suc = O=C(CCC(=O)[*:2])[*:1]; Nle = CCCC[C@H](N)C(=O)O; βAla = NCCC(=O)O
# Key:
# [1] = target: T1, FAP-expressing human WI-38 fibroblasts (Homo sapiens, UniProt Q12884); assay: Competitive FACS binding assay
# T1 construct: FAP-expressing human WI-38 fibroblasts (ECACC) were cultured in EMEM; host or cells: WI-38 human fibroblasts
# Procedure: Cells were analyzed in an Attune NxT flow cytometer. […] […].
# Cells were analyzed in an Attune NxT flow cytometer. […]
# in vivo = details: swiss nude, mouse, iv
# Human recombinant FAP [2] = target: T2, Human recombinant FAP (Homo sapiens, UniProt Q12884); assay: Surface plasmon resonance (Biacore) assay; format: binding
# [3] = Radiochemical purity by HPLC of ^99mTc-labeled compounds; format: physicochemical; details: 99Tc-labeled compounds
# Procedure: 100-500 MBq of ^99mTcO4 (in saline) were mixed with 11 μl of 0.5 M phosphate buffer pH 11.5-12.0 and 1.1 μl of 0.1 M trisodium citrate per 100 μl radionuclide solution. […] The mixture was incubated for 30 min at 25-50′° C. At the end of the incubation time, the mixture was neutralized with 3.0 μl 1 M HCl per 10 μl phosphate buffer and TWEEN-20 was added at a final concentration of 0.100.
# Human recombinant FAP [4] = target: T2, Human recombinant FAP; assay: FRET-based FAP protease activity assay; format: biochemical; parameters: purchased R&D systems 3715-SE; details: pIC50 Category (activity), Recombinant human FAP
# T2 sequence (Q12884 whole entry): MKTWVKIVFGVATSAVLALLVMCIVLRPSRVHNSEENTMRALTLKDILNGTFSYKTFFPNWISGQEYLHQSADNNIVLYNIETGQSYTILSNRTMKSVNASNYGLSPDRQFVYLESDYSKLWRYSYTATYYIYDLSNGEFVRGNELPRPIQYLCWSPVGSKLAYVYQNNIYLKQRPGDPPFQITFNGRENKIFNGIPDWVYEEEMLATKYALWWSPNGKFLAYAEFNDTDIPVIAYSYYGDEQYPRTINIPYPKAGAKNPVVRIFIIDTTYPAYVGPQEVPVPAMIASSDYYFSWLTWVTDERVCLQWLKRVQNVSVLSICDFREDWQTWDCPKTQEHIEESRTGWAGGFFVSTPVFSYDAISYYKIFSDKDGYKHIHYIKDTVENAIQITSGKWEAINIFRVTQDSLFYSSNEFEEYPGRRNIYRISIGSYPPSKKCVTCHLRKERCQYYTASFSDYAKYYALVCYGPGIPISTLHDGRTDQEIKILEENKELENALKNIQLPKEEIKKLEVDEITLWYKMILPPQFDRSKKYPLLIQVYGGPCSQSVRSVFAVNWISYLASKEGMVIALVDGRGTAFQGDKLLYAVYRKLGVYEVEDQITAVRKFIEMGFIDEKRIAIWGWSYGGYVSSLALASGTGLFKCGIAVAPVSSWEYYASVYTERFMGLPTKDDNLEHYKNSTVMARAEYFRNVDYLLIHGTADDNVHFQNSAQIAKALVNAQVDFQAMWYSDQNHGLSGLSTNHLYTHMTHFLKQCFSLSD
# T1 sequence (Q12884 whole entry): as above
Structure (SMILES),IC50 [1],tissue uptake at 1 h (in vivo; blood pool surrogate (BPS)),tissue uptake at 3 h (in vivo; blood pool surrogate (BPS)),tissue uptake at 6 h (in vivo; blood pool surrogate (BPS)),tissue uptake at 1 h (in vivo; kidneys),tissue uptake at 3 h (in vivo; kidneys),tissue uptake at 6 h (in vivo; kidneys),tissue uptake at 1 h (in vivo; tumor),tissue uptake at 3 h (in vivo; tumor),tissue uptake at 6 h (in vivo; tumor),Kd (Human recombinant FAP [2]),HPLC Area % at end of synthesis [3],HPLC Area % appr. 4 h post end of synthesis ([3]; (3 h)),IC50 (Human recombinant FAP [4]),HPLC Area % appr. 4 h post end of synthesis [3]
"CCCC[C@H](NC(=O)CCOCCOCCOCCOCCOCCOCCNC(=O)C(CNCCN)CNCCN)C(=O)N[C@H]1CSCc2cncc(c2)CSCC(C(=O)O)NC(=O)[C@H](Cc2ccccc2)NC(=O)[C@H](CCC(N)=O)NC(=O)[C@H]([C@@H](C)O)NC(=O)[C@@H]2CCCN2C(=O)[C@@H]2CCCN2C1=O (stereo partly drawn) [3BP-4550, N4Ac-PEG6-Nle-[Cys(3Lut)-Pro-Pro-Thr-Gln-Phe-Cys]-OH]",0.1 to 0.794 µM,0.06 %ID/g,0.03 %ID/g,0.04 %ID/g,0.92 %ID/g,0.62 %ID/g,0.38 %ID/g,6.14 %ID/g,4.91 %ID/g,2.91 %ID/g,0.01 to 0.0794 µM,100%,98.0%,0.01 to 0.0794 µM,–
"CCCC[C@H](NC(=O)CCC(=O)NCCCOCCOCCOCCCNC(=O)C(CNCCN)CNCCN)C(=O)N[C@H]1CSCc2cncc(c2)CSCC(C(=O)O)NC(=O)[C@H](Cc2ccccc2)NC(=O)[C@H](CCC(N)=O)NC(=O)[C@H]([C@@H](C)O)NC(=O)[C@@H]2CCCN2C(=O)[C@@H]2CCCN2C1=O (stereo partly drawn) [3BP-4549, N4Ac-Ttds-Nle-[Cys(3Lut)-Pro-Pro-Thr-Gln-Phe-Cys]-OH]",0.01 to 0.0794 µM,0.18 %ID/g,0.03 %ID/g,0.01 %ID/g,4.22 %ID/g,1.82 %ID/g,0.58 %ID/g,6.04 %ID/g,4.25 %ID/g,1.68 %ID/g,0.01 to 0.0794 µM,99.3%,97.6%,< 0.01 µM,–
"CCCC[C@H](NC(=O)CCC(=O)NCCCOCCOCCOCCCNC(=O)CN1CCN(C(=O)C(CNCCN)CNCCN)CC1)C(=O)N[C@H]1CSCc2cccc(c2)CSC[C@@H](C(=O)NCCC(=O)O)NC(=O)[C@H](Cc2ccccc2)NC(=O)[C@H](CCC(=O)O)NC(=O)[C@H]([C@@H](C)O)NC(=O)[C@@H]2CCCN2C(=O)[C@@H]2CCCN2C1=O [3BP-4784, N4Ac-PPAc-Ttds-Nle-[Cys(3MeBn)-Pro-Pro-Thr-Glu-Phe-Cys]-Bal-OH] ({X1-Suc}-[Nle]CPPTEFC[βAla]-OH; linker 2-8 via mXylylene)",< 0.01 µM,0.9 %ID/g,0.63 %ID/g,0.38 %ID/g,1.61 %ID/g,1.23 %ID/g,1.01 %ID/g,7.65 %ID/g,7.43 %ID/g,7.44 %ID/g,< 0.01 µM,96.6%,–,< 0.01 µM,94.9%
"CCCC[C@H](NC(=O)CCOCCOCCOCCOCCOCCOCCNC(=O)C(CNCCN)CNCCN)C(=O)N[C@H]1CSCc2cccc(c2)CSCC(C(=O)O)NC(=O)[C@H](Cc2ccccc2)NC(=O)[C@H](CCC(N)=O)NC(=O)[C@H]([C@@H](C)O)NC(=O)[C@@H]2CCCN2C(=O)[C@@H]2CCCN2C1=O (stereo partly drawn) [3BP-4551, N4Ac-PEG6-Nle-[Cys(3MeBn)-Pro-Pro-Thr-Gln-Phe-Cys]-OH]",0.01 to 0.0794 µM,0.18 %ID/g,0.07 %ID/g,0.04 %ID/g,4.34 %ID/g,1.18 %ID/g,0.5 %ID/g,10.6 %ID/g,7.31 %ID/g,4.59 %ID/g,0.01 to 0.0794 µM,94.1%,–,0.01 to 0.0794 µM,90.8%
